In ChEMBL document CHEMBL6092194, “Development of membrane-targeting chalcone derivatives as antibacterial agents against multidrug-resistant bacteria” (Eur J Med Chem, 2024):
Calls of active or inactive are those of the source. The rule behind the calls is not given here.

What was measured:
[1] = tested on: Cell membrane; assay: Induction of cytoplasmic membrane depolarization in Escherichia coli ATCC25922 assessed as fold increase in fluorescence intensity at 8 microg/ml measured within 24 mins by DiSC3(5) dye-based fluorescence assay relative to negative control; format: subcellular; conditions: dose 8.0 µg/ml
[2] = tested on: Cell membrane; assay: Disruption of cell membrane in Escherichia coli ATCC25922 assessed as increase in intracellular ROS level by DCFH-DA staining based fluorescence analysis; conditions: dose 1-8 µg/ml
[3] = tested on: Staphylococcus aureus; assay: Antibacterial activity against Staphylococcus aureus ATCC43300 infected in sepsis mouse model assessed as log reduction in bacterial load in kidney at 10 mg/kg pre-infected with bacteria for 1 hrs followed by compound administration at 12 hrs interval for 2 days relative to control; format: functional; conditions: time 2 day
[4] = tested on: Escherichia coli; assay: Antibacterial activity against Escherichia coli ATCC25922 infected in sepsis mouse model assessed as reduction in inflammatory cell infiltration in kidney at 10 mg/kg pre-infected with bacteria for 1 hrs followed by compound administration at 12 hrs interval for 2 days by H and E staining based analysis; format: functional, organism-based; conditions: time 2.0 day

CCCCCCOc1cc[n+](CCCOc2ccc(/C=C/C(=O)c3ccc(OCCC[n+]4ccc(OCCCCCC)cc4)cc3)cc2)cc1.[Br-].[Br-]
fold change (FC) [1]: 7.5
Activity [2]: Dose-dependent-effect
log(activity) [3]: 1.76
Activity [4]: inactive
